The record followed here is patent US8362008B2 (The University Of Edinburgh, priority 2007, dated 2013).

Each structure is given as a SMILES string. Bounds are passed on as bounds.

For the assay, the target named is T1, human 11β-HSD1 enzyme (Homo sapiens, UniProt P28845).
T1 construct: stably transfected with a construct containing the full-length gene coding for the human 11β-HSD1 enzyme; expressed in transfected cells; host or cells: HEK293 (HEK293/11β-HSD1 cells)
Kind of assay: Cellular in vitro 11β-HSD1 enzyme inhibition assay (SPA, HEK293/11β-HSD1 cells). It is filed as cell-based. The method, then:
Cellular In Vitro 11β-HSD1 Enzyme Inhibition Assay
Compounds were assessed by a Scintillation Proximity Assay (SPA) performed according to the following protocol:
HEK293 cells were stably transfected with a construct containing the full-length gene coding for the human 11β-HSD1 enzyme to create HEK293/11β-HSD1 cells. Cells were routinely cultured in DMEM containing 10% calf foetal serum, 1% glutamine, and 1% penicillin and streptomycin. Prior to assay, cells were plated at 2×10^4 cells/well in 96-well poly-D-Lys coated flat-bottomed microplates and incubated in 5% CO2, 95% O2 at 37° C. for 24 hours. The media in each well was removed immediately before assay.
Compounds to be tested were dissolved in DMSO at 10 mM and serially diluted into water containing 10% DMSO. Diluted compounds at a volume of 10 μL were added to wells of a 96-well V-bottomed microplate. […] This solution (100 μL/well) was transferred to the plate containing the cells. The plate was then incubated in 5% CO2, 95% O2 at 37° C. for 2 hours.
Following this incubation, 50 μL of the assay solution was transferred to each well of a 96-well scintillation microplate. A mixture consisting of anti-mouse YSi SPA beads, pre-mixed with anti-cortisol antibody in assay buffer (50 mM Tris.HCl, pH 7.0; 300 mM NaCl; 1 mM EDTA, 5% glycerol) was prepared and 50 μL added to each well of the scintillation microplate. An adhesive strip was applied to the microplate and the plate gently shaken for at least 2 hours at room temperature, and then spun briefly on a low speed centrifuge. The plate was read on a scintillation counter suitable for 96-well microplates. For the calculation of percentage inhibition, a series of wells were added to the plate that represented the assay maximum and the assay minimum: one set that contained substrate without cells (mimimum) and another set that contained substrate and cells without any compound (maximum).
The calculation of median inhibitory concentration (IC50) values for the compounds was performed using GraphPad Prism® software. Dose-response curves for each compound were plotted as fractional inhibition and data fitted to the four parameter logistic equation.

Setting [1] is: HEK293, more than 1000 nM (1.0 μM) and less than or equal to 30 μM.
Setting [2] is: HEK293, less than or equal to 1000 nM (1 μM).

T1 sequence (P28845 whole entry): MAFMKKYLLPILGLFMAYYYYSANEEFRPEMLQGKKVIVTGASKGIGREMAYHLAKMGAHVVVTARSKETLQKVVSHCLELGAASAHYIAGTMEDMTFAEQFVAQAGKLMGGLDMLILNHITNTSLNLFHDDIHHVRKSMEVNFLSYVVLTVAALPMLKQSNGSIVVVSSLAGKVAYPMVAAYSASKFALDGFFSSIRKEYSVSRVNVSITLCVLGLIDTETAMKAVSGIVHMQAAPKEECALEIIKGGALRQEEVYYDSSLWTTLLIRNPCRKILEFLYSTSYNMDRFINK

As usually defined, the IC50 is the concentration that gives 50% inhibition. Higher therefore signals a need for much substance. In turn, `CNCC(=O)N1CCC(c2cc(C(=O)N3CCC[C@@H]4CCCC[C@@H]43)cs2)CC1` (relative stereo) [CC-055, cis-2-Methylamino-1-{4-[4-(octahydro-quinoline-1-carbonyl)-thiophen-2-yl]-piperidin-1-yl}-ethanone] displayed a half-inhibitory concentration (IC50) under setting [1] of 1000 to 30000 nM.

Turning to `O=C(CCN1CCCCC1)N1CCC(c2cc(C(=O)N3CCC[C@@H]4CCCC[C@@H]43)cs2)CC1` (relative stereo) [CC-061, cis-1-{4-[4-(Octahydro-quinoline-1-carbonyl)-thiophen-2-yl]-piperidin-1-yl}-3-piperidin-1-yl-propan-1-one], the IC50 under setting [1] fell in the range of 1000 to 30000 nM.

Consider `CS(=O)(=O)N1CCC(c2cc(C(=O)N3CCC[C@@H]4CCCC[C@@H]43)cs2)CC1` (relative stereo) [CC-065, cis-[5-(1-Methanesulfonyl-piperidin-4-yl)-thiophen-3-yl]-(octahydro-quinolin-1-yl)-methanone], for which the IC50 under setting [2] was at most 1000 nM.

Regarding `COC(=O)N1CCC(c2cc(C(=O)N3CCC[C@@H]4CCCC[C@@H]43)cs2)CC1` (relative stereo) [CC-066, cis-4-[4-(Octahydro-quinoline-1-carbonyl)-thiophen-2-yl]-piperidine-1-carboxylic acid methyl ester], the concentration for half-maximal inhibition (IC50) under setting [2] was at most 1000 nM.

For the compound `NC(=O)N1CCC(c2cc(C(=O)N3CCC[C@@H]4CCCC[C@@H]43)cs2)CC1` (relative stereo) [CC-068, cis-4-[4-(Octahydro-quinoline-1-carbonyl)-thiophen-2-yl]-piperidine-1-carboxylic acid amide], the IC50 under setting [2] was at most 1000 nM.

Consider `O=C(c1csc(C2CCN(c3ncccn3)CC2)c1)N1CCC[C@@H]2CCCC[C@@H]21` (relative stereo) [CC-121, cis-(Octahydro-quinolin-1-yl)-[5-(1-pyrimidin-2-yl-piperidin-4-yl)-thiophen-3-yl]-methanone], for which, under setting [1], the IC50 was 1000 to 30000 nM.

`N#CC1(c2cc(C(=O)N3CCC[C@@H]4CCCC[C@@H]43)cs2)CCOCC1` (relative stereo) [CC-127, cis-4-[4-(Octahydro-quinoline-1-carbonyl)-thiophen-2-yl]-tetrahydro-pyran-4-carbonitrile] displayed an IC50 under setting [2] of at most 1000 nM.

Turning to `CC(C)(C(N)=O)N1CCC(c2cc(C(=O)N3CCC[C@@H]4CCCC[C@@H]43)cs2)CC1` (relative stereo) [CC-158, cis-2-{4-[4-(Octahydro-quinoline-1-carbonyl)-thiophen-2-yl]-piperidin-1-yl}-isobutyramide], under setting [2], the IC50 was at most 1000 nM.

Under setting [1], `O=C(c1csc(C2CCN(CC(F)(F)F)CC2)c1)N1CCC[C@@H]2CCCC[C@@H]21` (relative stereo) [CC-172, cis-(Octahydro-quinolin-1-yl)-{5-[1-(2,2,2-trifluoro-ethyl)-piperidin-4-yl]-thiophen-3-yl}-methanone] returned an IC50 of 1000 to 30000 nM.

As for `O=C(c1csc(C2CCNC2)c1)N1CCC[C@@H]2CCCC[C@@H]21` (relative stereo) [CC-177, cis-(Octahydro-quinolin-1-yl)-(5-pyrrolidin-3-yl-thiophen-3-yl)-methanone], the IC50 under setting [2] was at most 1000 nM.

`O=C(c1csc(C2CCNCC2)c1)N1CCC[C@@H]2CCCC[C@@H]21` (single isomer, unassigned) [CC-039, cis-(octahydro-quinolin-1-yl)-(5-piperidin-4-yl-thiophen-3-yl)-methanone] registered a 50% inhibitory concentration (IC50) under setting [1] of 1000 to 30000 nM.

`O=C(c1csc(C2CCNCC2)c1)N1CCCC2CCCCC21` (single isomer, unassigned) [CC-044, trans-(Octahydro-quinolin-1-yl)-(5-piperidin-4-yl-thiophen-3-yl)-methanone] showed a half-maximal inhibitory concentration (IC50) under setting [2] of at most 1000 nM.

Compound `O=C(c1csc(C2CCNCC2)c1)N1CCCC2CCCCC21` (single isomer, unassigned) [CC-045, trans-(Octahydro-quinolin-1-yl)-(5-piperidin-4-yl-thiophen-3-yl)-methanone] registered a 50% inhibitory concentration (IC50) under setting [1] of 1000 to 30000 nM.

Turning to `CC1(C)CC2CC(C)(CN2C(=O)c2csc(C3CCNCC3)c2)C1` (single isomer, unassigned) [CC-075, (5-Piperidin-4-yl-thiophen-3-yl)-(1,3,3-trimethyl-6-aza-bicyclo[3.2.1]oct-6-yl)-methanone], under setting [2], the IC50 was at most 1000 nM.

Turning to `CC1(C)CC2CC(C)(CN2C(=O)c2csc(C3CCNCC3)c2)C1` (single isomer, unassigned) [CC-076, (5-Piperidin-4-yl-thiophen-3-yl)-(1,3,3-trimethyl-6-aza-bicyclo[3.2.1]oct-6-yl)-methanone], under setting [1], the IC50 was 1000 to 30000 nM.

Consider `CC(=O)N1CCC(c2cc(C(=O)N3CCC[C@@H]4CCCC[C@@H]43)cs2)CC1` (single isomer, unassigned) [CC-114, cis-1-{4-[4-(Octahydro-quinoline-1-carbonyl)-thiophen-2-yl]-piperidin-1-yl}-ethanone], for which, under setting [2], the IC50 is at most 1000 nM.

Under setting [2], `O=C(c1csc(C2CCNCC2)c1)N1CCCCC1c1ccccc1` (single isomer, unassigned) [CC-130, cis-(2-Phenyl-piperidin-1-yl)-(5-piperidin-4-yl-thiophen-3-yl) methanone] came in with a half-inhibitory concentration (IC50) of at most 1000 nM.

On to `O=C(c1csc(C2CCOCC2)c1)N1CCC[C@@H]2CCCC[C@@H]21` (single isomer, unassigned) [CC-140, cis-(octahydro-quinolin-1-yl)-[5-(tetrahydro-pyran-4-yl)-thiophen-3-yl]-methanone], for which the IC50 under setting [2] is at most 1000 nM.

`O=C(c1csc(C2CCNCC2)c1)N1CCC[C@@H]2CCCC[C@@H]21` (single isomer, unassigned) [CC-159, cis-(octahydro-quinolin-1-yl)-(5-piperidin-4-yl-thiophen-3-yl)-methanone] came in with an IC50 under setting [2] of at most 1000 nM.

The compound `CCc1cc(C(=O)N2CCCCC2)c(Br)s1` [AA-002, (2-Bromo-5-ethyl-thiophen-3-yl)-piperidin-1-yl-methanone] gave an IC50 under setting [2] of at most 1000 nM.

With `CCc1cc(C(=O)N2CCCCC2)c(C#N)s1` [AA-003, 5-Ethyl-3-(piperidine-1-carbonyl)-thiophene-2-carbonitrile], the IC50 under setting [1] lay within 1000 to 30000 nM.

With `CCc1cc(C(=O)N2CCCCCC2)c(Cl)s1` [AA-004], under setting [2], the concentration for half-maximal inhibition (IC50) is at most 1000 nM.

`CCc1cc(C(=O)N2CCCCCC2)c(Br)s1` [AA-005]: the half-inhibitory concentration (IC50) under setting [2] is at most 1000 nM.

Consider `CCc1cc(C(=O)N2CCCCCC2)c(C#N)s1` [AA-006], for which, under setting [1], the half-inhibitory concentration (IC50) was in the range of 1000 to 30000 nM.

`CCc1cc(C(=O)N2CCC(c3ccccc3)C2)c(Cl)s1` (stereo not drawn) [AA-008]: the IC50 under setting [1] was 1000 to 30000 nM.

As to `CCc1cc(C(=O)N2CCCC3CCCCC32)cs1` (stereo not drawn) [AA-009], under setting [2], the 50% inhibitory concentration (IC50) was at most 1000 nM.

For the compound `CCc1cc(C(=O)N2CCC3CCCCC3C2)cs1` (stereo not drawn) [AA-010], under setting [1], the IC50 lay in the range of 1000 to 30000 nM.

Under setting [2], `CCCCCc1cc(C(=O)N2CCCC3CCCCC32)cs1` (stereo not drawn) [AA-011] registered a half-inhibitory concentration (IC50) of at most 1000 nM.

For `CCc1cc(C(=O)N2CCCC3CCCCC32)c(Cl)s1` (stereo not drawn) [AA-013], the IC50 under setting [2] is at most 1000 nM.

For the compound `CCc1cc(C(=O)N2CC3CC4CC(C3)CC2C4)cs1` [AA-015], the IC50 under setting [2] is at most 1000 nM.

Consider `CCc1cc(C(=O)N2C3CCCC2CC3)cs1` [AA-016], for which the IC50 under setting [2] was at most 1000 nM.

`CCCCCc1cc(C(=O)N2CC3(C)CC2CC(C)(C)C3)cs1` (stereo not drawn) [AA-017] registered an IC50 under setting [2] of at most 1000 nM.

With `CC1(C)CC2CC(C)(CN2C(=O)c2csc(CC(F)(F)F)c2)C1` (stereo not drawn) [AA-018], the half-maximal inhibitory concentration (IC50) under setting [2] is at most 1000 nM.

Under setting [2], `CCc1cc(C(=O)N2CCCC(C)(C)CC2)cs1` [AA-019] registered an IC50 of at most 1000 nM.

`CCc1cc(C(=O)N2CCCC(F)(F)CC2)cs1` [AA-020] had an IC50 under setting [1] of 1000 to 30000 nM.

Under setting [2], `CCc1cc(C(=O)N2CCCCC2c2ccccc2)cs1` (stereo not drawn) [AA-021] yielded an IC50 of at most 1000 nM.
